From patent publication US20240174717A1, “AFFINITY AGENTS” (Avitide LLC, priority 2021, published 2024)
Bridges are numbered along the chain shown (N, C = ends). [ ]: non-standard residue; d: D form. (Peg)3 = 12-amino-4,7,10-trioxadodecanoic acid subunits; PEG3 = NCCOCCOCCOCCC(=O)O; code 4 = not defined here; Dap = NC[C@H](N)C(=O)O

Legend:
exosomes = assay: Filter plate static binding experiment: affinity capture of exosomes by resins; conditions: ligand conjugated to A50 beads, load 1E10 particles/mL in PBST, 60 min
Procedure: A filter plate binding experiment using Durapore Membrane.
Resins were prepared by conjugating ligands to A50 beads.

[1] = Stability of affinity resin towards sodium hydroxide (static binding before and after treatment); format: physicochemical; conditions: 0.1 M NaOH for 18 hours, then static binding experiment vs untreated resin
Procedure: Resin comprising SEQ ID No: 43 was incubated with 0.1 M NaOH for 18 hours, washed and a static binding experiment was conducted as described in example 5.

Row | Substance | Ave Capture (%) (exosomes; ligand density 7.4 mg/mL) | Ave Capture (%) (exosomes; ligand density 11.2 mg/mL) | stability of resin towards sodium hydroxide [1] | Ave Capture (%) (exosomes; ligand density 7.7 mg/mL) | Ave Capture (%) (exosomes; ligand density 9.8 mg/mL)
1 | Ac-NYWR5VWFPHAQG2VSTA-(Peg)3K-Amide (Ac-NYWRDVWFPHAQG[Dap]VSTA[(Peg)3]K-NH2; lactam 5-14) [SEQ ID No. 43] | 89 | 98 | stable towards 0.1 M NaOH |  | 
2 | Ac-NYWR5VWFPHAQG4VSTA-(Peg)3K-Amide (Ac-NYWRDVWFPHAQG[code 4]VSTA[PEG3]K-NH2; lactam 5-14; not fully specified (some residues); printed as Ac-NYWR5VWFPHAQG4VSTA-(Peg)3K-Amide; reading uncertain) [SEQ ID No. 28] |  |  |  | 38 | 97
